Experimental data from US20100310685A1, “PUPICIDAL AND LARVICIDAL COMPOSITION” (priority 2008, published 2010).

Test system: pupae of Nematocera Diptera (for example mosquitoes)
Test: specific research on pupicidal action
Details: in vivo

## CCCCCCCCCCCCCCCCO [cetyl alcohol, 1-hexadecanol]
  pupicidal action (kills pupae): excellent pupicide
